Reference: patent US20030180398A1, “Composition for treating gastric ulcer and a process for preparing the same” (priority 2002, published 2003)

Assays:
[1] = system: pyloric ligation induced ulcer; experiment: Pyloric ligation induced ulcer model; type: in vivo, rats
Protocol: 1. Animals were fasted for 24 hours in the raised mesh bottom cages to prevent coprophagia and were allowed free access to water. 2. The control group of rats was feed with the vehicle and the experimental groups with their respective drugs 45 minutes prior to the ligation. 3. The animal was anesthetized, abdomen was cut opened under xiphoid process, and the pyloric portion of the stomach was slightly lifted and ligated avoiding any damage to the adjacent blood vessels (According to the method of Shay et al. 1945). 4. The animals were stitched and kept for 4 hours with free access to water. 5. After 4 hours the animals were sacrificed under ether anesthesia and the stomach was dissected out incised along the greater curvature. 6. The stomach was washed thoroughly and the ulcer index was scored as per in other ulcer models.

[2] = system: Cold Restraint Ulcer (CRU); experiment: Cold Restraint Ulcers (CRU) model; type: in vivo, rats
Protocol: Adult rats of either sex, weighing 150-175 grams are fasted for 24 hours in metallic cages with raised mesh bottoms to prevent coprophagia and were allowed free access to water. The test drugs were administered 45 minutes before immobilizing the animals. The rats were immobilized in the restraint cage and kept at 4° C. in BOD incubator for 2 hours (According to the method of Senay and Levine 1967). The animals were sacrificed immediately after the restraint period. The abdomen was cut opened; stomach was taken out and incised along the greater curvature to observe the gastric lesions with the help of Magnascope (5× magnification)
The following arbitrary scoring system was used to grade the severity and intensity of the lesions:
1. Shedding of epithelium=10
2. Petechial and frank hemorrhages=20
4. More than two ulcers=40
The presence of any of these lesions was considered as a positive ulcerogenic response which has been shown as percentage of rats showing gastric lesions. The severity of ulcers is expressed in terms of ulcer index, which is the mean score of gastric lesions of all the rats in a group. The term Ulcer Index is defined as:
Ulcer Index (U.I.)=Us+Up×10^−1
where Us=Mean severity of ulcer score and
Up=Percentage of animals with Ulcer incidences
The percentage protection is calculated as follows:
Percentage protection=(C−T/C)×100.
where C=Number of animals showing ulcer response in control group and
T=Number of animals showing ulcer response in test group.

[3] = system: Alcohol induced gastric ulcers; experiment: Alcohol (ethanol) induced gastric ulcers in rats; type: in vivo
Protocol: 1. Adult rats of either sex were taken; weighing 150-175 grams were fasted for 24 hours with free access to water.
2. The test drugs were administered (p.o.) 45 minutes before alcohol administration.
3.1 ml of chilled absolute alcohol was administered (p.o.) to the rats (According to the Wittetal).
4. Immediately after 1 hour, the animals were anesthetized, abdomen was cut opened stomach was taken out and incised along the greater curvature to observe the gastric lesions.
The ulcers are examined under the 5× magnification with the help of magnascope.
Absolute ethanol lesions appears as blackish lesions grouped in patches of varying size, usually parallel to the major axis of the stomach.
5. The lengths of the lesions are measured and summated to give a total lesion score, then calculated and expressed in percentage.

[4] = system: Aspirin induced gastric ulcer; experiment: Aspirin induced gastric ulcer model; type: in vivo, rats
Protocol: Gastric ulceration was induced by aspirin according to the method of Djahanguiri (1969). Aspirin (150 mg/Kg.) was administered per orally as a suspension in gum-acacia and the animal was sacrificed 5 hr. after the aspirin treatment and the ulcer index with protection index were calculated.

[5] = system: histamine induced duodenal ulcer; experiment: Histamine induced duodenal ulcer model; type: in vivo, Guinea pig
Protocol: 1. Animals were fasted for 24 hours with access to water.
2. The drug was given orally 1 hour prior to the histamine administration.
3. Histamine was administered in a dose of 0.25 mg/Kg, i.m. at 30 minutes interval for 7 times and it induced 100% duodenal ulceration in guinea pig (According to the method of Watt and Eagleton 1964).
4. The animals were sacrificed after half an hour of last injection under ether anesthesia.
5. The stomach along with duodenum were removed washed thoroughly and examined for the lesions. Ulcer index and protection index were calculated.

[6] = Aspirin 150 mg/Kg p.o., 20 mg/Kg

COc1ccc2[nH]c([S+]([O-])Cc3ncc(C)c(OC)c3C)nc2c1 (centres unmarked) [Omeprazole]
Ulcer index ([1]; Ligation, 10 mg/Kg p.o.): 6.6 | Protection index ([1]; Ligation, 10 mg/Kg p.o., versus ligation control): 51.44 | Percentage protection in respect to the protection of Omeprazole ([1]; pyloric ligation induced ulcer, Omeprazole taken as 100%): 100% | Mean severity of ulcer score ([2]; 10 mg/Kg p.o.): 07 | Percentage of ulcer incidence (No. of rats showing ulcer/total No. of rats used) ([2]; 10 mg/Kg p.o.): 50 (5/10) % | Ulcer index ([2]; 10 mg/Kg p.o.): 5.7 | Ulcer severity score 10 (Shedding of epithelium), No. of rats showing lesions/No. of rats tested ([2]; 10 mg/Kg p.o.): 3/10 | Ulcer severity score 20 (Petechial and frank hemorrhages), No. of rats showing lesions/No. of rats tested ([2]; 10 mg/Kg p.o.): 2/10 | Protection index ([2]; 10 mg/Kg p.o., versus CRU control): 54.03 | Percentage protection in respect to the protection of Omeprazole ([2]; 10 mg/Kg, standard taken as 100%): 100% | Length of hemorrhagic bands (mm ± SE) ([3]; 100 mg/Kg p.o. + Ethanol): 56.0 ± 9.12 mm | Percentage protection in respect to the protection of Omeprazole ([3]; Alcohol induced ulcer, omeprazole taken as 100%): 100.0% | Mean severity of ulcer score [4, 6]: 6.6 | Percentage of ulcer incidence (No. of rats showing ulcer/total No. of rats used) [4, 6]: 50 (3/6) % | Ulcer index [4, 6]: 5.66 | Ulcer severity score 10 (Shedding of epithelium), No. of rats showing lesions/No. of rats tested [4, 6]: 2/6 | Ulcer severity score 20 (Petechial and frank hemorrhages), No. of rats showing lesions/No. of rats tested [4, 6]: 1/6 | Protection index ([4]; Aspirin 150 mg/Kg p.o., 20 mg/Kg, versus aspirin control): 54.81 | Percentage protection in respect to the protection of Omeprazole ([4]; aspirin induced ulcer, 10 mg/Kg, standard taken as 100%): 100% | Mean severity of ulcer score ([5]; Histamine i.m., 10 mg/Kg p.o.): 6.66 | Percentage of ulcer incidence (No. of animals showing ulcer/total No. of animals used) ([5]; Histamine i.m., 10 mg/Kg p.o.): 33.33 (1/3) % | Ulcer index ([5]; Histamine i.m., 10 mg/Kg p.o.): 3.99 | Ulcer severity score 20, No. Guinea pig showing lesions/No. Guinea pig tested ([5]; Histamine i.m., 10 mg/Kg p.o.): 1/3 | Volume of gastric fluid ([5]; Histamine i.m., 10 mg/Kg p.o.): 1.0 ± 0.2 mL | % Protection ([5]; Histamine i.m., 10 mg/Kg p.o., versus ulcer control): 70.79% | Percentage protection in respect to the protection of Omeprazole ([5]; histamine induced duodenal ulcer, Omeprazole taken as 100%): 100%
